Assays:
NCI-H226 = test: Cytotoxicity against human NCI-H226 cells assessed as growth inhibition after 48 hrs by sulforhodamine B assay; type: functional; conditions: NCI-H226, 48 h
NCI-H460 = test: Cytotoxicity against human NCI-H460 cells assessed as growth inhibition after 48 hrs by sulforhodamine B assay; type: functional; conditions: NCI-H460, 48 h
U-251 [1] = test: Cytotoxicity against human U251 cells assessed as growth inhibition after 48 hrs by sulforhodamine B assay; type: functional; conditions: U-251, 48 h
M14 = test: Cytotoxicity against human M14 cells assessed as growth inhibition after 48 hrs by sulforhodamine B assay; type: functional; conditions: M14, 48 h
SK-MEL-5 [2] = test: Cytotoxicity against human SK-MEL-5 cells assessed as growth inhibition after 48 hrs by sulforhodamine B assay; type: functional; conditions: SK-MEL-5, 48 h
MCF7 [3] = test: Cytotoxicity against human MCF7 cells assessed as growth inhibition after 48 hrs by MTT assay; type: functional, cell-based; conditions: MCF7, 48 h
NCI/ADR-RES [4] = test: Cytotoxicity against human NCI/ADR-RES cells assessed as cell growth at 0.01 uM after 48 hrs by sulforhodamine B assay relative to control; type: functional; conditions: read-out: Activity
OVCAR-3 = test: Cytotoxicity against human OVCAR3 cells assessed as cell growth at 0.01 uM after 48 hrs by sulforhodamine B assay relative to control; type: functional; conditions: OVCAR-3, 48 h, read-out: Activity
MDA-MB-435 = test: Cytotoxicity against human MDA-MB-435 cells assessed as cell growth at 0.01 uM after 48 hrs by sulforhodamine B assay relative to control; type: functional; conditions: MDA-MB-435, 48 h, read-out: Activity
HL-60(TB) = test: Cytotoxicity against human HL-60(TB) cells assessed as cell growth at 0.01 uM after 48 hrs by sulforhodamine B assay relative to control; type: functional; conditions: HL-60, 48 h, read-out: Activity
PC-3 = test: Cytotoxicity against human PC3 cells assessed as cell growth at 0.01 uM after 48 hrs by sulforhodamine B assay relative to control; type: functional; conditions: PC-3, 48 h, read-out: Activity
T47D = test: Cytotoxicity against human T47D cells assessed as cell growth at 0.01 uM after 48 hrs by sulforhodamine B assay relative to control; type: functional; conditions: read-out: Activity
CCRF-CEM [5] = test: Cytotoxicity against human CCRF-CEM cells assessed as cell growth at 0.1 uM after 48 hrs by sulforhodamine B assay relative to control; type: functional; conditions: read-out: Activity
KM12 = test: Cytotoxicity against human KM12 cells assessed as cell growth at 0.1 uM after 48 hrs by sulforhodamine B assay relative to control; type: functional; conditions: KM12, 48 h, read-out: Activity
SN12C = test: Cytotoxicity against human SN12C cells assessed as cell growth at 0.1 uM after 48 hrs by sulforhodamine B assay relative to control; type: functional; conditions: read-out: Activity
A549 = test: Cytotoxicity against human A549/ATCC cells assessed as cell growth at 1 uM after 48 hrs by sulforhodamine B assay relative to control; type: functional; conditions: A549, 48 h, read-out: Activity
NCI-H522 = test: Cytotoxicity against human NCI-H522 cells assessed as cell growth at 1 uM after 48 hrs by sulforhodamine B assay relative to control; type: functional; conditions: NCI-H522, 48 h, read-out: Activity
HCT-116 = test: Cytotoxicity against human HCT116 cells assessed as cell growth at 1 uM after 48 hrs by sulforhodamine B assay relative to control; type: functional; conditions: HCT-116, 48 h, read-out: Activity
HCT-15 = test: Cytotoxicity against human HCT15 cells assessed as cell growth at 1 uM after 48 hrs by sulforhodamine B assay relative to control; type: functional; conditions: HCT-15, 48 h, read-out: Activity
SW-620 = test: Cytotoxicity against human SW620 cells assessed as cell growth at 1 uM after 48 hrs by sulforhodamine B assay relative to control; type: functional; conditions: SW-620, 48 h, read-out: Activity
SK-MEL-5 [6] = test: Cytotoxicity against human SK-MEL-5 cells assessed as cell growth at 1 uM after 48 hrs by sulforhodamine B assay relative to control; type: functional; conditions: SK-MEL-5, 48 h, read-out: Activity
NCI/ADR-RES [7] = test: Cytotoxicity against human NCI/ADR-RES cells assessed as cell growth at 1 uM after 48 hrs by sulforhodamine B assay relative to control; type: functional; conditions: read-out: Activity
786-0 = test: Cytotoxicity against human 786-0 cells assessed as cell growth at 1 uM after 48 hrs by sulforhodamine B assay relative to control; type: functional; conditions: 786-0, 48 h, read-out: Activity
MCF7 [8] = test: Cytotoxicity against human MCF7 cells assessed as cell growth at 1 uM after 48 hrs by sulforhodamine B assay relative to control; type: functional; conditions: MCF7, 48 h, read-out: Activity
CCRF-CEM [9] = test: Cytotoxicity against human CCRF-CEM cells assessed as cell growth at 10 uM after 48 hrs by sulforhodamine B assay relative to control; type: functional; conditions: read-out: Activity
COLO 205 = test: Cytotoxicity against human COLO205 cells assessed as cell growth at 10 uM after 48 hrs by sulforhodamine B assay relative to control; type: functional; conditions: COLO 205, 48 h, read-out: Activity
SNB-19 = test: Cytotoxicity against human SNB19 cells assessed as cell growth at 10 uM after 48 hrs by sulforhodamine B assay relative to control; type: functional; conditions: SNB-19, 48 h, read-out: Activity
OVCAR-5 [10] = test: Cytotoxicity against human OVCAR5 cells assessed as cell growth at 10 uM after 48 hrs by sulforhodamine B assay relative to control; type: functional; conditions: OVCAR-5, 48 h, read-out: Activity
MDA-MB-231 = test: Cytotoxicity against human MDA-MB-231 cells assessed as cell growth at 10 uM after 48 hrs by sulforhodamine B assay relative to control; type: functional; conditions: MDA-MB-231, 48 h, read-out: Activity
SF-268 = test: Cytotoxicity against human SF268 cells assessed as cell growth at 100 uM after 48 hrs by sulforhodamine B assay relative to control; type: functional; conditions: SF-268, 48 h, read-out: Activity
U-251 [11] = test: Cytotoxicity against human U251 cells assessed as cell growth at 100 uM after 48 hrs by sulforhodamine B assay relative to control; type: functional; conditions: U-251, 48 h, read-out: Activity
OVCAR-4 = test: Cytotoxicity against human OVCAR4 cells assessed as cell growth at 100 uM after 48 hrs by sulforhodamine B assay relative to control; type: functional; conditions: OVCAR-4, 48 h, read-out: Activity
OVCAR-5 [12] = test: Cytotoxicity against human OVCAR5 cells assessed as cell growth at 100 uM after 48 hrs by sulforhodamine B assay relative to control; type: functional; conditions: OVCAR-5, 48 h, read-out: Activity
UO-31 = test: Cytotoxicity against human UO31 cells assessed as cell growth at 100 uM after 48 hrs by sulforhodamine B assay relative to control; type: functional; conditions: UO-31, 48 h, read-out: Activity
Hs-578T = test: Cytotoxicity against human Hs 578T cells assessed as cell growth at 100 uM after 48 hrs by sulforhodamine B assay relative to control; type: functional; conditions: read-out: Activity

Row | SMILES | TGI (NCI-H226) | LC50 (NCI-H460) | TGI (NCI-H460) | TGI (U-251 [1]) | LC50 (concentration killing 50% of cells) (M14) | TGI (M14) | LC50 (concentration killing 50% of cells) (SK-MEL-5 [2]) | TGI (SK-MEL-5 [2]) | IC50 (MCF7 [3]) | growth at 0.01 µM (NCI/ADR-RES [4]) | growth at 0.01 µM (OVCAR-3) | growth at 0.01 µM (MDA-MB-435) | growth at 0.01 µM (HL-60(TB)) | growth at 0.01 µM (PC-3) | growth at 0.01 µM (T47D) | growth at 0.1 µM (CCRF-CEM [5]) | growth at 0.1 µM (KM12) | growth at 0.1 µM (SN12C) | growth at 1 µM (A549) | growth at 1 µM (NCI-H522) | other results
1 | COc1ccc(C(=O)/C=C/c2cc(-c3cc(OC)c(OC)c(OC)c3)n[nH]2)cc1OC | 3.32 µM | 7.86 µM | 3.33 µM | 2.48 µM | 7.38 µM | 3.69 µM | 5.59 µM | 3.03 µM | 0.51 µM | 99% | 100% | 95% | 103% | 96% | 93% | 94% | 92% | 94% | 84% | -63% | LC50 (U-251 [1]): 4.99 µM; growth at 1 µM (HCT-116): 47%; growth at 1 µM (HCT-15): 65%; growth at 1 µM (SW-620): 70%; growth at 1 µM (SK-MEL-5 [6]): 91%; growth at 1 µM (NCI/ADR-RES [7]): 90%; growth at 1 µM (786-0): 74%; growth at 1 µM (MCF7 [8]): 31%; growth at 10 µM (CCRF-CEM [9]): -26%; growth at 10 µM (COLO 205): -93%; growth at 10 µM (SNB-19): -80%; growth at 10 µM (OVCAR-5 [10]): -93%; growth at 10 µM (MDA-MB-231): -82%; growth at 100 µM (SF-268): -88%; growth at 100 µM (U-251 [11]): -99%; growth at 100 µM (OVCAR-4): -82%; growth at 100 µM (OVCAR-5 [12]): -71%; growth at 100 µM (UO-31): -96%; growth at 100 µM (Hs-578T): -15%
2 | COc1cc(-c2cc(/C=C/C(=O)c3ccc(Cl)c(Cl)c3)[nH]n2)cc(OC)c1OC | > 100 µM | > 100 µM | 36.6 µM | 80.5 µM | > 100 µM | > 100 µM | > 100 µM | 46.9 µM | 3.2 µM | 100% | 103% | 94% | 105% | 95% | 90% | 98% | 93% | 96% | 93% | 67% | LC50 (concentration killing 50% of cells) (NCI-H226): > 100 µM; LC50 (U-251 [1]): > 100 µM; growth at 1 µM (HCT-116): 80%; growth at 1 µM (HCT-15): 86%; growth at 1 µM (SW-620): 91%; growth at 1 µM (SK-MEL-5 [6]): 94%; growth at 1 µM (NCI/ADR-RES [7]): 92%; growth at 1 µM (786-0): 91%; growth at 1 µM (MCF7 [8]): 62%; growth at 10 µM (CCRF-CEM [9]): 9%; growth at 10 µM (COLO 205): 10%; growth at 10 µM (SNB-19): 50%; growth at 10 µM (OVCAR-5 [10]): 65%; growth at 10 µM (MDA-MB-231): 47%; growth at 100 µM (SF-268): -15%; growth at 100 µM (U-251 [11]): -5%; growth at 100 µM (OVCAR-4): -22%; growth at 100 µM (OVCAR-5 [12]): 16%; growth at 100 µM (UO-31): 18%; growth at 100 µM (Hs-578T): 3%
3 | COc1ccc(C(=O)/C=C/c2cc(-c3cc(OC)c(OC)c(OC)c3)n[nH]2)cc1 | 4.07 µM | 8.18 µM | 3.75 µM | 2.83 µM | > 100 µM | 4.93 µM | 6.1 µM | 3.24 µM | 0.81 µM | 102% | 101% | 99% | 115% | 99% | 96% | 98% | 94% | 96% | 86% | 75% | growth at 1 µM (HCT-116): 72%; growth at 1 µM (HCT-15): 72%; growth at 1 µM (SW-620): 82%; growth at 1 µM (SK-MEL-5 [6]): 93%; growth at 1 µM (NCI/ADR-RES [7]): 90%; growth at 1 µM (786-0): 94%; growth at 1 µM (MCF7 [8]): 57%; growth at 10 µM (CCRF-CEM [9]): -19%; growth at 10 µM (COLO 205): -90%; growth at 10 µM (SNB-19): -85%; growth at 10 µM (OVCAR-5 [10]): -70%; growth at 10 µM (MDA-MB-231): -33%; growth at 100 µM (SF-268): -37%; growth at 100 µM (U-251 [11]): -25%; growth at 100 µM (OVCAR-4): -15%; growth at 100 µM (OVCAR-5 [12]): -59%; growth at 100 µM (UO-31): -79%; growth at 100 µM (Hs-578T): 5%

Reference: ChEMBL document CHEMBL4138123, “Design, synthesis and biological evaluation of novel pyrazolochalcones as potential modulators of PI3K/Akt/mTOR pathway and inducers of apoptosis in breast cancer cells” (Eur J Med Chem, 2017)
